Laboratory results published in US20250326744A1, “PIPERAZINE DERIVATIVE OR SALT THEREOF, AND PHARMACEUTICAL COMPOSITION” (priority 2022, published 2025).
Counter-ions that a name gives are not always drawn.

Key:
S-3769 strain = experiment: Combinational effect with antibacterial agent against Pseudomonas aeruginosa (Test Examples 2 and 4): S-3769 strain with AMK or GM at 1/4 MIC, EC99; assay type: cell-based; conditions: for EC99, combinational effect with AMK, S-3769 strain / EC99, S-3769 strain, AMK: combined with AMK at 1/4 MIC; for EC99, combinational effect with AMK, S-3769 strain / EC99, combinational effect with GM, S-3769 strain: Test Example 4; for EC99, combinational effect with GM, S-3769 strain / EC99, S-3769 strain, GM: combined with GM at 1/4 MIC; for EC99, S-3769 strain, AMK / EC99, S-3769 strain, GM: Table 52, Test Example 2, 16 to 20 hours culture, OD595
In short: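 EC99, the lowest test-compound concentration inhibiting growth by ≥99% (OD595), was measured with aminoglycoside AMK or GM held at ¼ MIC. Strain S-3769, a MexY-overexpressing clinical isolate, was cultured in CAMHB at 10^4 to 5 CFU/well for 16–20 h; compound range 0–800 μM.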

mexB (PA) strain = experiment: Combinational effect with antibacterial agent against Pseudomonas aeruginosa (Test Examples 2 and 4): mexB (PA) strain with LVFX, TC or AZT at 1/4 MIC, EC99; assay type: cell-based; conditions: for EC99, combinational effect with AZT, mexB (PA) / EC99, combinational effect with LVFX, mexB (PA) / EC99, combinational effect with TC, mexB (PA): mexB (PA) strain, Test Example 4; for EC99, combinational effect with AZT, mexB (PA) / EC99, mexB (PA), AZT: combined with AZT at 1/4 MIC; for EC99, combinational effect with LVFX, mexB (PA) / EC99, mexB (PA), LVFX: combined with LVFX at 1/4 MIC; for EC99, combinational effect with TC, mexB (PA) / EC99, mexB (PA), TC: combined with TC at 1/4 MIC; for EC99, mexB (PA), AZT / EC99, mexB (PA), LVFX / EC99, mexB (PA), TC: Table 52, Test Example 2, 16 to 20 hours culture, OD595
In short: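 EC99 denotes the minimum test-compound concentration (range 0–800 μM) that suppresses ≥99% of growth, measured by OD595, when combined with ¼ MIC levofloxacin (LVFX), tetracycline or aztreonam. The efflux-pump mutant mexB (PA), expressing mainly MexAB-OprM, was inoculated at 10^4–5 CFU/well in CAMHB for 16–20 h.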

Compound	EC99, combinational effect with AMK, S-3769 strain (S-3769 strain)	EC99, combinational effect with GM, S-3769 strain (S-3769 strain)	EC99, combinational effect with AZT, mexB (PA) (mexB (PA) strain)	EC99, combinational effect with LVFX, mexB (PA) (mexB (PA) strain)	EC99, combinational effect with TC, mexB (PA) (mexB (PA) strain)	EC99, S-3769 strain, AMK (S-3769 strain)	EC99, S-3769 strain, GM (S-3769 strain)	EC99, mexB (PA), AZT (mexB (PA) strain)	EC99, mexB (PA), LVFX (mexB (PA) strain)	EC99, mexB (PA), TC (mexB (PA) strain)
N[C@@H](C(=O)N1CCN(Cc2c(F)cccc2-c2c[nH]cn2)CC1)C1CCN(CCc2cc(Cl)ccc2-c2ccccc2)CC1 [Example 528, Hydrobromide of (R)-2-amino-2-(1-(2-(4-chloro-[1,1-biphenyl]-2-yl)ethyl)piperidin-4-yl)-1-(4-(2-fluoro-6-(1H-imidazol-4-yl)benzyl)piperazin-1-yl)ethan-1-one]	A (12.5 μM<EC99≤25 μM)	S (EC99≤12.5 μM)	B (25 μM<EC99≤100 μM)	A (12.5 μM<EC99≤25 μM)	A (12.5 μM<EC99≤25 μM)	–	–	–	–	–
CCSc1cc(F)ccc1CN1CCN(C(=O)[C@H](N)C2CCN(CCc3ccc(O)cc3-c3ccccc3)CC2)CC1 [Example 624, Hydrochloride of (R)-2-amino-1-(4-(2-(ethylthio)-4-fluorobenzyl)piperazin-1-yl)-2-(1-(2-(5-hydroxy-[1,1-biphenyl]-2-yl)ethyl)piperidin-4-yl)ethan-1-one]	B (25 μM<EC99≤100 μM)	B (25 μM<EC99≤100 μM)	C (100 μM<EC99)	B (25 μM<EC99≤100 μM)	B (25 μM<EC99≤100 μM)	–	–	–	–	–
COc1cccc(O)c1CN1CCN(C(=O)[C@H](N)C2CCN(CCc3cc(Cl)ccc3-c3ccccc3)CC2)CC1 [Example 575, Hydrochloride of (R)-2-amino-2-(1-(2-(4-chloro-[1,1-biphenyl]-2-yl)ethyl)piperidin-4-yl)-1-(4-(2-hydroxy-6-methoxybenzyl)piperazin-1-yl) ethan-1-one]	A (12.5 μM<EC99≤25 μM)	A (12.5 μM<EC99≤25 μM)	S (EC99≤12.5 μM)	S (EC99≤12.5 μM)	A (12.5 μM<EC99≤25 μM)	–	–	–	–	–
CCOc1cccc(F)c1CN1CCN(C(=O)[C@H](N)C2CCN(CCC3COc4ccccc4C3)CC2)CC1 (stereo partly drawn) [Example 153, Hydrobromide of (2R)-2-amino-2-(1-(2-(chroman-3-yl)ethyl)piperidin-4-yl)-1-(4-(2-ethoxy-6-fluorobenzyl)piperazin-1-yl)ethan-1-one]	–	–	–	–	–	S (EC99≤12.5 μM)	S (EC99≤12.5 μM)	C (100 μM<EC99)	C (100 μM<EC99)	C (100 μM<EC99)
CCOc1cccc(F)c1CN1CCN(C(=O)[C@H](N)C2CCN(CCC3CCCc4ccccc43)CC2)CC1 (stereo partly drawn) [Example 151, Hydrobromide of (2R)-2-amino-1-(4-(2-ethoxy-6-fluorobenzyl)piperazin-1-yl)-2-(1-(2-(1,2,3,4-tetrahydronaphthalen-1-yl)ethyl)piperidin-4-yl)ethan-1-one]	–	–	–	–	–	B (25 μM<EC99≤100 μM)	B (25 μM<EC99≤100 μM)	C (100 μM<EC99)	C (100 μM<EC99)	C (100 μM<EC99)
CSc1ccccc1CN1CCN(C(=O)[C@H](N)C2CCN(CCc3cc(Cl)ccc3-c3ccccc3N)CC2)CC1 [Example 556, Hydrobromide of (R)-2-amino-2-(1-(2-(2′-amino-4-chloro-[1,1-biphenyl]-2-yl)ethyl)piperidin-4-yl)-1-(4-(2-(methylthio)benzyl)piperazin-1-yl)ethan-1-one]	B (25 μM<EC99≤100 μM)	B (25 μM<EC99≤100 μM)	S (EC99≤12.5 μM)	S (EC99≤12.5 μM)	S (EC99≤12.5 μM)	–	–	–	–	–
N[C@@H](C(=O)N1CCN(Cc2cccc3cccnc23)CC1)C1CCN(CCc2cc(Cl)ccc2-c2ccccc2)CC1 [Example 533, Hydrobromide of (R)-2-amino-2-(1-(2-(4-chloro-[1,1-biphenyl]-2-yl)ethyl)piperidin-4-yl)-1-(4-(quinolin-8-ylmethyl)piperazin-1-yl)ethan-1-one]	A (12.5 μM<EC99≤25 μM)	A (12.5 μM<EC99≤25 μM)	B (25 μM<EC99≤100 μM)	A (12.5 μM<EC99≤25 μM)	A (12.5 μM<EC99≤25 μM)	–	–	–	–	–
CCOc1cccc(F)c1CN1CCN(C(=O)[C@H](N)C2CCN(CCc3cc(Cl)ccc3-c3cnc(NC)c(C)c3)CC2)CC1 [Example 563, Hydrobromide of (R)-2-amino-2-(1-(5-chloro-2-(5-methyl-6-(methylamino)pyridine-3-yl)phenethyl)piperidin-4-yl)-1-(4-(2-ethoxy-6-fluorobenzyl)piperazin-1-yl)ethan-1-one]	A (12.5 μM<EC99≤25 μM)	A (12.5 μM<EC99≤25 μM)	C (100 μM<EC99)	C (100 μM<EC99)	C (100 μM<EC99)	–	–	–	–	–
CCSc1cc(F)ccc1CN1CCN(C(=O)[C@H](N)C2CCN(CCc3cc(Cl)ccc3C3=CCCNC3)CC2)CC1 [Example 605, Hydrochloride of (R)-2-amino-2-(1-(5-chloro-2-(1,2,5,6-tetrahydropyridin-3-yl)phenethyl)piperidin-4-yl)-1-(4-(2-(cthylthio)-4-fluorobenzyl)piperazin-1-yl) ethan-1-one]	S (EC99≤12.5 μM)	S (EC99≤12.5 μM)	B (25 μM<EC99≤100 μM)	S (EC99≤12.5 μM)	S (EC99≤12.5 μM)	–	–	–	–	–
CCOc1cccc(F)c1CN1CCN(C(=O)[C@H](N)C2CCN(CCc3ccccc3-c3cc(F)cc(F)c3)CC2)CC1 [Example 48, Hydrobromide of (R)-2-amino-2-(1-(2-(3′,5′-difluoro-[1,1′-biphenyl]-2-yl)ethyl)piperidin-4-yl)-1-(4-(2-ethoxy-6-fluorobenzyl)piperazin-1-yl)ethan-1-one]	–	–	–	–	–	B (25 μM<EC99≤100 μM)	A (12.5 μM<EC99≤25 μM)	B (25 μM<EC99≤100 μM)	C (100 μM<EC99)	B (25 μM<EC99≤100 μM)
CCOc1cccc(F)c1CN1CCN(C(=O)[C@H](N)C2CCN(CCc3cc(Cl)ccc3-c3cccc(O)c3)CC2)CC1 [Example 100, (R)-2-amino-2-(1-(2-(4-chloro-3′-hydroxy-[1,1′-biphenyl]-2-yl)ethyl)piperidin-4-yl)-1-(4-(2-ethoxy-6-fluorobenzyl)piperazin-1-yl)ethan-1-one]	–	–	–	–	–	S (EC99≤12.5 μM)	S (EC99≤12.5 μM)	A (12.5 μM<EC99≤25 μM)	A (12.5 μM<EC99≤25 μM)	A (12.5 μM<EC99≤25 μM)
CCSc1cc(F)ccc1CN1CCN(C(=O)[C@H](N)C2CCN(CCc3cc(Cl)ccc3-c3cc(O)cc(Cl)c3)CC2)CC1 [Example 614, (R)-2-amino-2-(1-(2-(3′,4-dichloro-5′-hydroxy-[1,1′-biphenyl]-2-yl)ethyl)piperidin-4-yl)-1-(4-(2-(ethylthio)-4-fluorobenzyl)piperazin-1-yl)ethan-1-one]	S (EC99≤12.5 μM)	S (EC99≤12.5 μM)	S (EC99≤12.5 μM)	S (EC99≤12.5 μM)	S (EC99≤12.5 μM)	–	–	–	–	–
CCOc1ccc(F)c(F)c1CN1CCN(C(=O)[C@H](N)C2CCN(CCc3cc(Cl)ccc3-c3ccccc3)CC2)CC1 [Example 35, Hydrobromide of (R)-2-amino-2-(1-(2-(4-chloro-[1,1′-biphenyl]-2-yl)ethyl)piperidin-4-yl)-1-(4-(6-ethoxy-2,3-difluorobenzyl)piperazin-1-yl)ethan-1-one]	–	–	–	–	–	S (EC99≤12.5 μM)	S (EC99≤12.5 μM)	B (25 μM<EC99≤100 μM)	C (100 μM<EC99)	B (25 μM<EC99≤100 μM)
